According to the kinase profiling compilation of Christmann-Franck et al. (2016):

Legend:
Assay in all cases: radiometric filter-binding kinase assay, Kinase HotSpot
Conditions in all cases: compound 0.5 µM; ATP 10 µM
[1] = molecular target: CAMK2D (human) (UniProt Q13557)
[2] = molecular target: CDC42BPA (human) (UniProt Q5VT25)
[3] = molecular target: RPS6KB2 (human) (UniProt Q9UBS0)
[4] = molecular target: PAK3 (human) (UniProt O75914)
[5] = molecular target: MAP4K4 (human) (UniProt O95819)
[6] = molecular target: CAMK2G (human) (UniProt Q13555)
[7] = molecular target: STK11 (human) (UniProt Q15831)
[8] = molecular target: PAK1 (human) (UniProt Q13153)
[9] = molecular target: NEK11 (human) (UniProt Q8NG66)
[10] = molecular target: ADRBK1 (human) (UniProt P25098)
ADRBK1 (human), sequence (P25098 whole entry, looked up): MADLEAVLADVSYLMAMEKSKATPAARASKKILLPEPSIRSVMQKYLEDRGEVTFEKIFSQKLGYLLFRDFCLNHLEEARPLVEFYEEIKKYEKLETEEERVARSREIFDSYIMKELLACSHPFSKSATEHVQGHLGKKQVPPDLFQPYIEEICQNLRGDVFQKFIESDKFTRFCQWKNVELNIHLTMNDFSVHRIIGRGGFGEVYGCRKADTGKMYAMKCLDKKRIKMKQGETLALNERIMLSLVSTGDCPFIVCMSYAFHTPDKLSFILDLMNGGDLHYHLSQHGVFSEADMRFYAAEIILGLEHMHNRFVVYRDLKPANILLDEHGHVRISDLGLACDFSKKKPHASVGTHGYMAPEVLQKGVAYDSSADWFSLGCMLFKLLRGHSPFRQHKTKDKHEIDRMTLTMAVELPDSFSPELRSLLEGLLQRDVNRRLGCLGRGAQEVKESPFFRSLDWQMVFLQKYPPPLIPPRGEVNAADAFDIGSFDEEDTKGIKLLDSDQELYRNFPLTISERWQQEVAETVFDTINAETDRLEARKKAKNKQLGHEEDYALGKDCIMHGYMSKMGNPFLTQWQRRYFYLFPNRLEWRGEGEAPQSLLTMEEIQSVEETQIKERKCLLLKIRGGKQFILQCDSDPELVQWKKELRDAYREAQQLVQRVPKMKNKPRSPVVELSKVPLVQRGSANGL

[11] = molecular target: STK3 (human) (UniProt Q13188)
[12] = molecular target: GSK3B (human) (UniProt P49841)
[13] = molecular target: PTK6 (human) (UniProt Q13882)
[14] = molecular target: PTK2B (human) (UniProt Q14289)
[15] = molecular target: MAPK9 (human) (UniProt P45984)
[16] = molecular target: NUAK1 (human) (UniProt O60285)
[17] = molecular target: FRK (human) (UniProt P42685)
[18] = molecular target: IKBKE (human) (UniProt Q14164)
IKBKE (human), sequence (Q14164 whole entry, looked up): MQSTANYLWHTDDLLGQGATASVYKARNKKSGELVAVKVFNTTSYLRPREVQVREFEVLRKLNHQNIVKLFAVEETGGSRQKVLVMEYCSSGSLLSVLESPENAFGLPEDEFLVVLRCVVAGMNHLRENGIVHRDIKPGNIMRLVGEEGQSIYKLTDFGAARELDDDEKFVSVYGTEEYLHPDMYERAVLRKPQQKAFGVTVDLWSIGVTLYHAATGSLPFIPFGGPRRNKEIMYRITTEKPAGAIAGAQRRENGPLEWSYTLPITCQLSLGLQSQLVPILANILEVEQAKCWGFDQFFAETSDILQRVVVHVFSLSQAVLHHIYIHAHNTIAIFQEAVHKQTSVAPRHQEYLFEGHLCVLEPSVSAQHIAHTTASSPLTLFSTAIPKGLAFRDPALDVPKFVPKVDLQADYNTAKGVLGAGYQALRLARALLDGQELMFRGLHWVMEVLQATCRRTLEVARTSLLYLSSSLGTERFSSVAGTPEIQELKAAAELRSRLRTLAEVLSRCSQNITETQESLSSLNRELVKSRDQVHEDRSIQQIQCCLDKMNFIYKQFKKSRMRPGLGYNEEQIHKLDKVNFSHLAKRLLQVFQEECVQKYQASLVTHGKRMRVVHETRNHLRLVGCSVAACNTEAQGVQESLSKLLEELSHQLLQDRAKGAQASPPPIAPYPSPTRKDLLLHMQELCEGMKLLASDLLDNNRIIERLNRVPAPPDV

[19] = molecular target: EPHA7 (human) (UniProt Q15375)
[20] = molecular target: TAOK2 (human) (UniProt Q9UL54)
[21] = molecular target: NEK9 (human) (UniProt Q8TD19)
NEK9 (human), sequence (Q8TD19 whole entry, looked up): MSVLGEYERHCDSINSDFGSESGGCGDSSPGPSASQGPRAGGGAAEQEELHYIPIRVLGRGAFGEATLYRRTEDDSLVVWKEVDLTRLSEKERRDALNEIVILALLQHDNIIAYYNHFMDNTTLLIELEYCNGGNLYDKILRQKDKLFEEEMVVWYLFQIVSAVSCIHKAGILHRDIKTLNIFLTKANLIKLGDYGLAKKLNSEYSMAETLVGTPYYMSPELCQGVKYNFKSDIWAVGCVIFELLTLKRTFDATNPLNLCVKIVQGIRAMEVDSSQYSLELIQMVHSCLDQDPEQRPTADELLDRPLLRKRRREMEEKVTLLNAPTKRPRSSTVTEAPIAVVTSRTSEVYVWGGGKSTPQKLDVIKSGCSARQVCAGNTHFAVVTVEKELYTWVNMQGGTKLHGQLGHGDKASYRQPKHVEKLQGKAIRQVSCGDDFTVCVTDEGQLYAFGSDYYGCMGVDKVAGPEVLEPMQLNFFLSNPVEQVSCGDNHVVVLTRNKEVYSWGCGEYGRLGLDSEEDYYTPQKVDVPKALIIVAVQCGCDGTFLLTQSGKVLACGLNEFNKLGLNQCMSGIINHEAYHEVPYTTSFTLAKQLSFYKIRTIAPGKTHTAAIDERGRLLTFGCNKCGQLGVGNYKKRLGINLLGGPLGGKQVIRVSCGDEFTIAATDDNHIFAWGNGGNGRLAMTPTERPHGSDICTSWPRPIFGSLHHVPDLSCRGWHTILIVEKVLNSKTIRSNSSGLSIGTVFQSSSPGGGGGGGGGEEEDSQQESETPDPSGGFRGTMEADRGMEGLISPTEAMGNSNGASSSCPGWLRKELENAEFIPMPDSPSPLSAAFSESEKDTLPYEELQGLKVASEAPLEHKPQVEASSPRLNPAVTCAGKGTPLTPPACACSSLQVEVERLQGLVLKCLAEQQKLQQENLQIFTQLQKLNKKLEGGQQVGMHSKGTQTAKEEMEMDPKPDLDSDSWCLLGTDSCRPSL

[22] = molecular target: PIM2 (human) (UniProt Q9P1W9)
[23] = molecular target: ROCK2 (human) (UniProt O75116)
[24] = molecular target: DYRK1B (human) (UniProt Q9Y463)
DYRK1B (human), sequence (Q9Y463 whole entry, looked up): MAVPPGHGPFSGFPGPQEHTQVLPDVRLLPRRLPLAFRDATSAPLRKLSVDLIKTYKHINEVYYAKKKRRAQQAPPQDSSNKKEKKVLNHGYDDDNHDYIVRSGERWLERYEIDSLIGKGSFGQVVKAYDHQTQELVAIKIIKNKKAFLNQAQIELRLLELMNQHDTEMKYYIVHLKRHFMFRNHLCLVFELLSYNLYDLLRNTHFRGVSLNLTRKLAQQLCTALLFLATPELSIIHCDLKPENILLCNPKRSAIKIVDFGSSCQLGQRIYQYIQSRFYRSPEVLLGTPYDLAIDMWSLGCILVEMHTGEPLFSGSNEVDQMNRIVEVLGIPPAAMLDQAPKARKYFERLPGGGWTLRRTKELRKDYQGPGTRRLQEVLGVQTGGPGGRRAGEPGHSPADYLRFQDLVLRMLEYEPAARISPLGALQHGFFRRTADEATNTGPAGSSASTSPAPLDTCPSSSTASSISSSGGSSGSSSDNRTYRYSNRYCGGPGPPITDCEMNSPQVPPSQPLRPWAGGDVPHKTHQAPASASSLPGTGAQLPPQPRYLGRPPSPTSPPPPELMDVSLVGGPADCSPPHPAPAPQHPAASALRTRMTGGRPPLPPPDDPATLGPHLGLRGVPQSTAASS

[25] = molecular target: RET (human) (UniProt P07949)
RET (human), sequence (P07949 whole entry, looked up): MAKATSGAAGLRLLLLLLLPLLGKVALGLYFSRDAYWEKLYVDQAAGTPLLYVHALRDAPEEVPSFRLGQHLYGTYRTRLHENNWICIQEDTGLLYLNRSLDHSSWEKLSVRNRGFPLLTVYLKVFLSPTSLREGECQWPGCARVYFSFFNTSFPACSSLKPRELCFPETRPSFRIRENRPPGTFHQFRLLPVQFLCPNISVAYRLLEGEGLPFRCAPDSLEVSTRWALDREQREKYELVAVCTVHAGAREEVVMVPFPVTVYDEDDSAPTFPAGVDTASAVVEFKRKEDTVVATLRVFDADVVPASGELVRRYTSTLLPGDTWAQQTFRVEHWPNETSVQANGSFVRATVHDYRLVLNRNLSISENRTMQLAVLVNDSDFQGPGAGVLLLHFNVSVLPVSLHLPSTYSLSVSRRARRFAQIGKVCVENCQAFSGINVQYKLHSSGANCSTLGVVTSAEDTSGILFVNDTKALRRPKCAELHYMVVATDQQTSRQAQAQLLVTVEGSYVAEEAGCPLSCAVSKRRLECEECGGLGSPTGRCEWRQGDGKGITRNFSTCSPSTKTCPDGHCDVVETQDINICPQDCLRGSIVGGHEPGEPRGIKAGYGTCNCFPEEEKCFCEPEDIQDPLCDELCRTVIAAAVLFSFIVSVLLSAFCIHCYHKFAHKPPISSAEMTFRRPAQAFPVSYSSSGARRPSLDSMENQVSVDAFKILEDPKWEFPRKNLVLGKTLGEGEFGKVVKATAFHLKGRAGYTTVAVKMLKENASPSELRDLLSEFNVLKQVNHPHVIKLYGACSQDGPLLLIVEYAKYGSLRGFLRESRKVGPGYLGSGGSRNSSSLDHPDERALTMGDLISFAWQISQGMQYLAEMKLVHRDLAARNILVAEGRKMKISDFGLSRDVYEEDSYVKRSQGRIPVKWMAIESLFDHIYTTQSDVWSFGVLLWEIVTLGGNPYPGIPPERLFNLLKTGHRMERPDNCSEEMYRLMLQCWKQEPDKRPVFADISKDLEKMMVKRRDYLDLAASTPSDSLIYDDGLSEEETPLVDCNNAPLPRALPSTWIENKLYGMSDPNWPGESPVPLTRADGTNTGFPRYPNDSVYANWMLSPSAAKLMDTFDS

[26] = molecular target: NEK7 (human) (UniProt Q8TDX7)
[27] = molecular target: SRMS (human) (UniProt Q9H3Y6)
[28] = molecular target: MUSK (human) (UniProt O15146)
[29] = molecular target: ULK1 (human) (UniProt O75385)
[30] = molecular target: EPHA1 (human) (UniProt P21709)
[31] = molecular target: CSNK1G2 (human) (UniProt P78368)
[32] = molecular target: PRKCD (human) (UniProt Q05655)
[33] = molecular target: OXSR1 (human) (UniProt O95747)
[34] = molecular target: TSSK2 (human) (UniProt Q96PF2)
TSSK2 (human), sequence (Q96PF2 whole entry, looked up): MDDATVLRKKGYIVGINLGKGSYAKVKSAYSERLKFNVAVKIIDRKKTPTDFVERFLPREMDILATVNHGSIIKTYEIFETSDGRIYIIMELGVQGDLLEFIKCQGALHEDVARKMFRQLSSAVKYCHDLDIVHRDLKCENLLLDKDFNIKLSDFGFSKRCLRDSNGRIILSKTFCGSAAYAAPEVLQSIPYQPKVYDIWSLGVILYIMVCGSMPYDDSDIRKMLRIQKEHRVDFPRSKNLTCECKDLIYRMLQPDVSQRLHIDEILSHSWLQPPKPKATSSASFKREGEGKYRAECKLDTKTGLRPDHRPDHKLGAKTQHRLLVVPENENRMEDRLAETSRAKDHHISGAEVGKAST

[35] = molecular target: FES (human) (UniProt P07332)
[36] = molecular target: PTK2 (human) (UniProt Q05397)
[37] = molecular target: MARK1 (human) (UniProt Q9P0L2)
[38] = molecular target: MATK (human) (UniProt P42679)
[39] = molecular target: MET (human) (UniProt P08581)
[40] = molecular target: IKBKB (human) (UniProt O14920)
[41] = molecular target: MST4 (human) (UniProt Q9P289)
[42] = molecular target: CAMK1G (human) (UniProt Q96NX5)

PAK3 (human), sequence (O75914 whole entry, looked up): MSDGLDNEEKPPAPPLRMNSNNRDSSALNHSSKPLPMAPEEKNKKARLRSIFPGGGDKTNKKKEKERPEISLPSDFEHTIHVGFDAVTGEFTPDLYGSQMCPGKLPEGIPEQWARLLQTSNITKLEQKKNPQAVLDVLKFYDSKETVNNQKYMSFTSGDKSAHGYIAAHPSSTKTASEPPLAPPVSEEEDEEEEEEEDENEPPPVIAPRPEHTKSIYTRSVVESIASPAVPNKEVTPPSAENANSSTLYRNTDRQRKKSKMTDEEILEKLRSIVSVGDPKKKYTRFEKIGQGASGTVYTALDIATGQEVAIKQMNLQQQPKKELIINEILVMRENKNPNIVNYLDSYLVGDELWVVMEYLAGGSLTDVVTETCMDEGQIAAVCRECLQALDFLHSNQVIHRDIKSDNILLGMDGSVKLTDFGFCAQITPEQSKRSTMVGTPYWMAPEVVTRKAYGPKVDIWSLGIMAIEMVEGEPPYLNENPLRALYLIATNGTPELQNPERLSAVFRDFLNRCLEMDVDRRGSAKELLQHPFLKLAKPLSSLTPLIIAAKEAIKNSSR

O=C1Nc2ccccc2/C1=C\c1c(Cl)[nH]c2ccccc12
residual activity [1]: 86.7% | residual activity [2]: 95.7% | residual activity [3]: 99.4% | residual activity [4]: 98.8% | residual activity [5]: 75.7% | residual activity [6]: 103% | residual activity [7]: 83.4% | residual activity [8]: 92.8% | residual activity [9]: 98.5% | residual activity [10]: 98.9% | residual activity [11]: 89.1% | residual activity [12]: 105% | residual activity [13]: 76.9% | residual activity [14]: 95.5% | residual activity [15]: 101% | residual activity [16]: 86% | residual activity [17]: 100% | residual activity [18]: 98% | residual activity [19]: 95.3% | residual activity [20]: 104% | residual activity [21]: 94.2% | residual activity [22]: 106% | residual activity [23]: 90.2% | residual activity [24]: 99.3% | residual activity [25]: 93% | residual activity [26]: 97.6% | residual activity [27]: 84.2% | residual activity [28]: 96.4% | residual activity [29]: 106% | residual activity [30]: 98.5% | residual activity [31]: 96.3% | residual activity [32]: 88.4% | residual activity [33]: 89.1% | residual activity [34]: 113% | residual activity [35]: 96.6% | residual activity [36]: 101% | residual activity [37]: 96% | residual activity [38]: 89.5% | residual activity [39]: 109% | residual activity [40]: 106%

Clc1ccc(Nc2nnc(Cc3ccncc3)c3ccccc23)cc1
residual activity [1]: 81.1% | residual activity [2]: 78.3% | residual activity [3]: 101% | residual activity [4]: 107% | residual activity [5]: 107% | residual activity [6]: 115% | residual activity [7]: 97.3% | residual activity [8]: 116% | residual activity [9]: 87% | residual activity [41]: 118% | residual activity [42]: 107% | residual activity [10]: 102% | residual activity [11]: 92.1% | residual activity [12]: 104% | residual activity [14]: 102% | residual activity [15]: 97.5% | residual activity [16]: 112% | residual activity [17]: 95.4% | residual activity [18]: 95.7% | residual activity [19]: 90.5% | residual activity [20]: 85.4% | residual activity [21]: 98.4% | residual activity [22]: 95.8% | residual activity [23]: 95.4% | residual activity [24]: 109% | residual activity [25]: 89.1% | residual activity [26]: 96.8% | residual activity [27]: 91.8% | residual activity [28]: 105% | residual activity [29]: 107% | residual activity [30]: 96% | residual activity [31]: 98.2% | residual activity [32]: 97.4% | residual activity [33]: 101% | residual activity [34]: 82.8% | residual activity [35]: 94.7% | residual activity [36]: 101% | residual activity [37]: 124% | residual activity [38]: 78.1% | residual activity [39]: 94% | residual activity [40]: 85.6%

CCN1/C(=C/C(C)=O)Sc2ccc(OC)cc21
residual activity [1]: 92.2% | residual activity [2]: 85% | residual activity [3]: 107% | residual activity [4]: 96.3% | residual activity [5]: 83.2% | residual activity [6]: 90.4% | residual activity [7]: 86.6% | residual activity [8]: 92.9% | residual activity [9]: 104% | residual activity [41]: 87.9% | residual activity [42]: 101% | residual activity [10]: 95.5% | residual activity [12]: 98.1% | residual activity [13]: 85.3% | residual activity [14]: 97.8% | residual activity [15]: 101% | residual activity [16]: 93.4% | residual activity [17]: 99.5% | residual activity [18]: 99% | residual activity [19]: 95.8% | residual activity [20]: 101% | residual activity [21]: 102% | residual activity [22]: 102% | residual activity [23]: 90.7% | residual activity [24]: 32.9% | residual activity [25]: 96.5% | residual activity [27]: 84.7% | residual activity [28]: 28.4% | residual activity [29]: 115% | residual activity [30]: 95.8% | residual activity [32]: 88.2% | residual activity [33]: 93.5% | residual activity [34]: 106% | residual activity [35]: 101% | residual activity [36]: 108% | residual activity [37]: 91% | residual activity [38]: 89.2% | residual activity [39]: 103% | residual activity [40]: 102%
